These are literature values, as cited in US20080139615A1, “COMBINATION OF A HYPNOTIC AGENT AND R (+)-ALPHA-(2,3-DIMETHOXY-PHENYL)-1-[2-(4-FLUOROPHENYL)ETHYL]-4-PIPERIDINEMETHANOL AND THERAPEUTIC APPLICATION THEREOF” (priority 2005, published 2008).

Data set [1] has as its system slow wave sleep (SWS), arousals. The conditions noted are these: patients with sleep maintenance insomnia.
For data set [2] the following is noted: average dosage between 5 and 10 mg, conventional formulation.

On to `COc1cccc([C@H](O)C2CCN(CCc3ccc(F)cc3)CC2)c1OC` [Compound A, R-(+)-α-(2,3-dimethoxyphenyl)-1-[2-(4-fluorophenyl)ethyl]-4-piperidinemethanol], for which the “SWS (slow wave sleep)” value in data set [1] is recorded as “increase”. On to `Cc1ccc(-c2nc3ccc(C)cn3c2CC(=O)N(C)C)cc1` [Zolpidem, zolpidem], for which, in data set [2], the acting time entry was “up to 6 hours” and the “half life (average value)” value was “about 2.4 hours”.
